# Where two headings read alike, the source gives them in different places.
# Legend:
# human CYP1A2 [1] = molecular target: T1, human CYP1A2 (Homo sapiens, UniProt P05177); assay: biochemical
# T1 sequence (P05177 1-516): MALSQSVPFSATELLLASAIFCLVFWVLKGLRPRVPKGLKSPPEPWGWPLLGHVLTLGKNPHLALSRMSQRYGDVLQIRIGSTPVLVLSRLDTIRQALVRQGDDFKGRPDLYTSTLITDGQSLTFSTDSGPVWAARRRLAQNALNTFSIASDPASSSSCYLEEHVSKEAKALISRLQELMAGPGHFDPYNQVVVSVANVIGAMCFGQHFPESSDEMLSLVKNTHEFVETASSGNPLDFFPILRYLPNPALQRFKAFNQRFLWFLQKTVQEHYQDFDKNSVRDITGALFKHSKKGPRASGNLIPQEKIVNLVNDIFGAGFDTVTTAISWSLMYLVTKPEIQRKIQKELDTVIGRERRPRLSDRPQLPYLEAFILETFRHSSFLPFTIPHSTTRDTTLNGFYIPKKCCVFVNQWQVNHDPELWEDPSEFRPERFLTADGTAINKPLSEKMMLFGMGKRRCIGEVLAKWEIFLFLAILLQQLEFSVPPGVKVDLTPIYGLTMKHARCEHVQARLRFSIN
# human CYP2C19 [2] = molecular target: T2, human CYP2C19 (Homo sapiens, UniProt P33261); assay: biochemical; conditions: CYP2C19 AC50 (half-maximal activity concentration)
# T2 sequence (P33261 whole entry): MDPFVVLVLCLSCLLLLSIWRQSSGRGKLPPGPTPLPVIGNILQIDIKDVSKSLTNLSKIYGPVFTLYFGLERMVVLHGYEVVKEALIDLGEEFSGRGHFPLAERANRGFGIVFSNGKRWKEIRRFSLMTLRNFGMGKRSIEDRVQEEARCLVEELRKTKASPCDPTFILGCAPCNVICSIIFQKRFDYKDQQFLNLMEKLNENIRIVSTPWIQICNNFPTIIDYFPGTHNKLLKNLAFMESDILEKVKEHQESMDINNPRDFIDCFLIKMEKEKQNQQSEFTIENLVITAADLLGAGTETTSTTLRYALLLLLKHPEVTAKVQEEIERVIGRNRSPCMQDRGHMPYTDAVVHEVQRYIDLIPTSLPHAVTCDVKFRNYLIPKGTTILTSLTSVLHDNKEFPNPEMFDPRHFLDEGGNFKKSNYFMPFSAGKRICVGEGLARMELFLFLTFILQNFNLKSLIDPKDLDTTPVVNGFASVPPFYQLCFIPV
# human CYP2D6 = human CYP2D6 (Homo sapiens, UniProt P10635)
# human CYP2D6, sequence (P10635 whole entry): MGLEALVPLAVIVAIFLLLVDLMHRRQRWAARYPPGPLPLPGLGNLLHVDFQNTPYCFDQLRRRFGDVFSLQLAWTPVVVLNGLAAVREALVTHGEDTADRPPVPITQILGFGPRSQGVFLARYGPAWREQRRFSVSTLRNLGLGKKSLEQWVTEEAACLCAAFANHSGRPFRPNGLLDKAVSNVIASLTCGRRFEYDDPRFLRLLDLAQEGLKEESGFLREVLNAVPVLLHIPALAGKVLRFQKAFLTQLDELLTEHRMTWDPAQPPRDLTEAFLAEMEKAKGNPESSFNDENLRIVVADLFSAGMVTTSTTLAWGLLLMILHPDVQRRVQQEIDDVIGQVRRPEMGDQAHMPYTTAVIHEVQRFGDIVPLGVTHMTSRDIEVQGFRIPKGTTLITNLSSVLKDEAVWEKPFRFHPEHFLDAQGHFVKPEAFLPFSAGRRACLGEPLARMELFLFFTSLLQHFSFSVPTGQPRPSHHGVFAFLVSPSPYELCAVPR
# CYP3A4 = CYP3A4 (Homo sapiens, UniProt P08684); assay: biochemical
# CYP3A4, sequence (P08684 whole entry): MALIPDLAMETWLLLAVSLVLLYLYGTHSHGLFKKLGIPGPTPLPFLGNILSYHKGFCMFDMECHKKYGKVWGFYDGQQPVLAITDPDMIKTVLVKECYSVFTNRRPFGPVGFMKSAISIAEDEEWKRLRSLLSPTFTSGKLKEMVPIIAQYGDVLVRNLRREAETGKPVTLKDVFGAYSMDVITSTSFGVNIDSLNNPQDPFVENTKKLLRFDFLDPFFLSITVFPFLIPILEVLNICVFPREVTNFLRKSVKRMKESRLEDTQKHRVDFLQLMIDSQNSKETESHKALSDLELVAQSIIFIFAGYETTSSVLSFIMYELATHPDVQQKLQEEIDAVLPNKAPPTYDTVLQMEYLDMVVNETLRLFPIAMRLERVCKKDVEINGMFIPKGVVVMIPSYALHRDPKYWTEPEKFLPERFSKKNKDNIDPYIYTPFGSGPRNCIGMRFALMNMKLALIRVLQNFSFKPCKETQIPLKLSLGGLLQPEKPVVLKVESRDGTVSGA
# human CYP2C9 [3] = molecular target: T3, human CYP2C9 (Homo sapiens, UniProt P11712); assay: biochemical
# T3 sequence (P11712 whole entry): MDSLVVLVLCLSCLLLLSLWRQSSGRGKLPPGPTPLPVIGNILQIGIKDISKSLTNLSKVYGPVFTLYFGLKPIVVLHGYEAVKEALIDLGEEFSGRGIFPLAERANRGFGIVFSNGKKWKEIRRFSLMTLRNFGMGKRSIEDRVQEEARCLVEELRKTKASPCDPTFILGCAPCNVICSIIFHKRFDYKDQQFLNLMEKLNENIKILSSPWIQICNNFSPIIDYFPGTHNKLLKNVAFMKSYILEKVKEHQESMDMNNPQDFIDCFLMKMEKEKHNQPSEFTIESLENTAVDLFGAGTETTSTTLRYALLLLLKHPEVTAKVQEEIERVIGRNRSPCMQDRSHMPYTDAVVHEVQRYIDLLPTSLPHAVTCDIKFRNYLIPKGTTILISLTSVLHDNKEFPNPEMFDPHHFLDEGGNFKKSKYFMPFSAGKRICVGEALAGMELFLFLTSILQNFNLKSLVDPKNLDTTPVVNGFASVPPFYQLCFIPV
# human CYP2C19 [4] = molecular target: T2, human CYP2C19
# human CYP2C9 [5] = molecular target: T3, human CYP2C9
# human CYP1A2 [6] = molecular target: T1, human CYP1A2
# [7] = CYP1A2 AC50 (half-maximal activity concentration)
# [8] = CYP3A4 AC50 (half-maximal activity concentration)
# [9] = CYP2C9 AC50 (half-maximal activity concentration)
SMILES,AC50 (human CYP1A2 [1]; [7]) [µM],AC50 (human CYP2C19 [2]) [µM],CYP2D6 AC50 (half-maximal activity concentration) (human CYP2D6),AC50 (CYP3A4; [8]) [µM],AC50 (human CYP2C9 [3]; [9]) [µM],CYP2C19 AC50 (half-maximal activity concentration) (human CYP2C19 [4]),AC50 (human CYP1A2 [1]) [µM],AC50 (CYP3A4) [µM],AC50 (human CYP2C9 [3]) [µM],CYP2C9 AC50 (half-maximal activity concentration) (human CYP2C9 [5]),CYP1A2 AC50 (half-maximal activity concentration) (human CYP1A2 [6])
Cc1c(C)c([N+](=O)[O-])c(C(C)(C)C)c([N+](=O)[O-])c1C,17.5,22.8,Inactive,12.2,51.7,–,–,–,–,–,–
O=[N+]([O-])c1cc(C(F)(F)F)cc([N+](=O)[O-])c1Cl,64.7,56.7,Inconclusive inhibitor,49.2,18,–,–,–,–,–,–
CC=CC(=O)N(CC)c1ccccc1C (mixture of isomers) [Crotamiton],31.4,–,Inactive,7.51,40.1,Inconclusive inhibitor,–,–,–,–,–
"N#CCCC(Br)(C#N)CBr (stereo not shown) [1,2-Dibromo-2,4-dicyanobutane]",14.6,11.5,Inconclusive inhibitor,9.92,8.43,–,–,–,–,–,–
"c1cnc2c(c1)ccc1cccnc12 [1,10-Phenanthroline]",11.7,11.9,Inconclusive inhibitor,69.5,4.65,–,–,–,–,–,–
CCCCCCCCCCCCN1CCCC1=O [1-Dodecyl-2-pyrrolidinone],–,–,Inactive,–,–,Inconclusive inhibitor,29.7,9.84,37.9,–,–
O=[N+]([O-])c1cccc2ccccc12 [1-Nitronaphthalene],2.96,59.8,Inactive,15.6,31.2,–,–,–,–,–,–
"Oc1c(Cl)cc(Cl)c(Cl)c1Cl [2,3,4,6-Tetrachlorophenol]",57.1,–,Inactive,67,28.3,Inactive,–,–,–,–,–
"Oc1c(Cl)c(Cl)cc(Cl)c1Cl [2,3,5,6-Tetrachlorophenol]",66.6,–,Inactive,58.1,22.7,Inconclusive inhibitor,–,–,–,–,–
"O=C(O)c1cc(I)cc(I)c1I [2,3,5-Triiodobenzoic acid]",57.3,–,Inactive,75.1,20.9,Inconclusive inhibitor,–,–,–,–,–
"Oc1c(Cl)ccc(Cl)c1Cl [2,3,6-Trichlorophenol]",37,–,Inconclusive inhibitor,55.4,35.7,Inconclusive inhibitor,–,–,–,–,–
CCCCCCCCCC(C)C=O (stereo not shown) [2-Methylundecanal],74.2,–,Inactive,87.3,65.1,Inconclusive inhibitor,–,–,–,–,–
"Oc1nc(Cl)c(Cl)cc1Cl [3,5,6-Trichloro-2-pyridinol]",47.9,–,Inconclusive inhibitor,65.8,45.4,Inconclusive inhibitor,–,–,–,–,–
CCNc1nc(NC(C)C)nc(SC)n1 [Ametryn],9.81,–,Inactive,29.2,20.8,Inconclusive inhibitor,–,–,–,–,–
CCOC(=O)CCCCCCCCC(=O)OCC [Diethyl decanedioate],35.2,–,Inactive,26.2,42.2,Inconclusive inhibitor,–,–,–,–,–
CCC(C)c1cc([N+](=O)[O-])cc([N+](=O)[O-])c1O (stereo not shown) [Dinoseb],58.1,76.8,–,33.9,–,–,–,–,–,–,–
CC(C)(C)c1cc([N+](=O)[O-])cc([N+](=O)[O-])c1O [Dinoterb],48,–,Inconclusive inhibitor,24.7,17.8,Inconclusive inhibitor,–,–,–,–,–
CCC1(c2ccccc2)CCC(=O)NC1=O (stereo not shown) [Glutethimide],–,–,Inactive,26,–,Inconclusive inhibitor,–,–,–,Inconclusive inhibitor,Inactive
C[C@@H]1CC[C@@]2(OC1)O[C@H]1C[C@H]3[C@@H]4CC[C@H]5C[C@@H](O)CC[C@]5(C)[C@H]4CC(=O)[C@]3(C)[C@H]1[C@@H]2C [Hecogenin],–,–,Inactive,0.98,–,Inactive,–,–,–,Inactive,Inactive
O=C(O)CCCc1c[nH]c2ccccc12 [Indole-3-butyric acid],–,–,Inactive,13.4,–,Inconclusive inhibitor,–,–,–,Inactive,Inactive
O=C(CCOCCOCCOCCOCCC(=O)Nc1c(I)cc(I)c(C(=O)O)c1I)Nc1c(I)cc(I)c(C(=O)O)c1I [Iodoxamic Acid],–,–,Inactive,–,–,Inactive,–,5.65 ± 2.66,–,Inactive,Inactive
Oc1c(Br)c(Br)c(Br)c(Br)c1Br [Pentabromophenol],57.8,–,Inactive,70.2,30.1,Inconclusive,–,–,–,–,–
Oc1c(Cl)c(Cl)c(Cl)c(Cl)c1Cl [Pentachlorophenol],67.4,52.3,Inactive,54.4,–,–,–,–,–,–,–
O=C(Oc1ccccc1)c1ccccc1 [Phenyl benzoate],–,–,Inactive,–,–,Inactive,71,58.7,62.1,–,–
CC(=O)[C@H]1[C@H](C#N)C[C@H]2[C@@H]3CC=C4C[C@@H](O)CC[C@]4(C)[C@H]3CC[C@@]21C [Pregnenolone carbonitrile],–,–,Inactive,2.22,–,Inactive,–,–,–,Inconclusive inhibitor,Inactive
O=C1OC(=O)c2c(Cl)c(Cl)c(Cl)c(Cl)c21 [Tetrachlorophthalic anhydride],–,89.4,Inconclusive inhibitor,34.7,–,–,–,–,–,Inactive,Inactive
